Results reported in PMC11047580, “Design and Synthesis of Novel Amino and Acetamidoaurones with Antimicrobial Activities” (Antibiotics, 2024).
Converted amounts (≈) assume the structure as drawn.

What was measured:
[1] = Cytotoxic assay (resazurin); conditions: human, HaCaT normal epidermal keratinocytes
[2] = Cytotoxic assay (resazurin); conditions: human, A498 kidney epithelial cells
E. coli ATCC8739 = experiment: MIC assay; type: cell-based, Escherichia coli; conditions: two-fold serial dilutions in liquid media, n = 2–3; for MIC: Escherichia coli, ATCC8739
[3] = Cytotoxic assay (resazurin); conditions: human, IMR-90 normal lung fibroblasts
B. subtilis ATCC6633 = experiment: MIC assay; type: cell-based, Bacillus subtilis; conditions: Bacillus subtilis, ATCC6633; two-fold serial dilutions in liquid media; n = 2–3
C. albicans DSM10697 = experiment: MIC assay; type: cell-based, Candida albicans; conditions: two-fold serial dilutions in liquid media, n = 2–3; for MIC: Candida albicans, DSM10697
[4] = Cytotoxic assay (resazurin); conditions: human, BEAS-2B normal lung epithelial cells
M. smegmatis ATCC700084 = experiment: MIC assay (REMA); type: cell-based, Mycobacterium smegmatis; conditions: Mycolicibacterium smegmatis, ATCC700084, REMA microdilution, n = 2–3
[5] = Cytotoxic assay, summary over the six human cell types; conditions: human, 48 h exposure
[6] = test system: human cells (A498, BEAS-2B, Caco-2, HaCaT, HepG2, IMR-90); experiment: as above; conditions: for Highest TI: highest CC50 on human cells divided by MIC on S. aureus; for Lowest TI: lowest CC50 on human cells divided by MIC on S. aureus
S. aureus ATCC6538P = experiment: MIC assay; type: cell-based, Staphylococcus aureus; conditions: Staphylococcus aureus, ATCC6538P; two-fold serial dilutions in liquid media; n = 2–3
P. aeruginosa ATCC9027 = experiment: MIC assay; type: cell-based, Pseudomonas aeruginosa; conditions: Pseudomonas aeruginosa, ATCC9027; two-fold serial dilutions in liquid media; n = 2–3
[7] = Cytotoxic assay (resazurin); conditions: human, HepG2 liver cells
[8] = Cytotoxic assay (resazurin); conditions: human, Caco-2
[9] = test system: B. subtilis, S. aureus, E. coli, P. aeruginosa, M. smegmatis, C. albicans; experiment: First MIC screening, summary over the species of Table 2; type: cell-based; conditions: discussion of the first screening
[10] = Highest CC50, highest of the six human cell types
[11] = Lowest CC50, lowest of the six human cell types
[12] = Mean CC50, mean over the six human cell types

## Nc1ccc2c(c1)C(=O)/C(=C/c1cccc(OCc3ccccc3)c1)O2 [Compound 12, (Z)-5-amino-2-(3-(benzyloxy)benzylidene)benzofuran-3(2H)-one]
[1]
  CC50 at 48 h: 51.3 µM
[2]
  CC50 at 48 h: 152 µM
E. coli ATCC8739
  MIC: > 100 µM
  MIC E. coli ATCC8739: inactive
other
  melting point: 132.6 °C
[3]
  CC50 at 48 h: 42.4 µM
B. subtilis ATCC6633
  MIC: 25 µM (≈ 8.58 µg/mL)
C. albicans DSM10697
  MIC: > 100 µM
  MIC C. albicans DSM10697: inactive
[4]
  CC50 at 48 h: 74.6 µM
M. smegmatis ATCC700084
  MIC: 50 µM (≈ 17.2 µg/mL)
[5]; [10]
  CC50 at 48 h: 343 µM
[5]; [11]
  CC50 at 48 h: 42.4 µM
[5]; [12]
  CC50 at 48 h: 129 µM
[6]
  Highest TI: 3.4
  Lowest TI: 0.4
S. aureus ATCC6538P
  MIC: 100 µM (≈ 34.3 µg/mL)
P. aeruginosa ATCC9027
  MIC: > 100 µM
[7]
  CC50 at 48 h: 343 µM
[8]
  CC50 at 48 h: 112 µM

## CC(=O)Nc1ccc2c(c1)C(=O)/C(=C/c1ccc(Oc3ccccc3)cc1)O2 [Compound 15, (Z)-N-(3-oxo-2-(4-phenoxybenzylidene)-2,3-dihydrobenzofuran-5-yl)acetamide]
[1]
  CC50 at 48 h: > 500 µM
[2]
  CC50 at 48 h: 146 µM
E. coli ATCC8739
  MIC: > 100 µM
  MIC E. coli ATCC8739: inactive
other
  melting point: 213.5 °C
[3]
  CC50 at 48 h: > 500 µM
B. subtilis ATCC6633
  MIC: 50 µM (≈ 18.6 µg/mL)
C. albicans DSM10697
  MIC: > 100 µM
  MIC C. albicans DSM10697: inactive
[4]
  CC50 at 48 h: 110 µM
M. smegmatis ATCC700084
  MIC: 50 µM (≈ 18.6 µg/mL)
[5]; [10]
  CC50 at 48 h: > 500 µM
[5]; [11]
  CC50 at 48 h: 110 µM
[6]
  Highest TI: >5
  Lowest TI: 1.0
S. aureus ATCC6538P
  MIC: 100 µM (≈ 37.1 µg/mL)
P. aeruginosa ATCC9027
  MIC: > 100 µM
[7]
  CC50 at 48 h: > 500 µM
[8]
  CC50 at 48 h: 137 µM

## Nc1ccc2c(c1)C(=O)/C(=C/c1cccc(Oc3ccccc3)c1)O2 [Compound 16, (Z)-5-amino-2-(3-phenoxybenzylidene)benzofuran-3(2H)-one]
[1]
  CC50 at 48 h: 80.4 µM
[2]
  CC50 at 48 h: 452 µM
E. coli ATCC8739
  MIC: 25 µM (≈ 8.23 µg/mL)
other
  melting point: 145.6 °C
[3]
  CC50 at 48 h: 116 µM
B. subtilis ATCC6633
  MIC: 25 µM (≈ 8.23 µg/mL)
C. albicans DSM10697
  MIC: > 100 µM
  MIC C. albicans DSM10697: inactive
[4]
  CC50 at 48 h: 130 µM
M. smegmatis ATCC700084
  MIC: 50 µM (≈ 16.5 µg/mL)
[5]; [10]
  CC50 at 48 h: 452 µM
[5]; [11]
  CC50 at 48 h: 80.4 µM
[5]; [12]
  CC50 at 48 h: 218 µM
[6]
  Highest TI: 18.0
  Lowest TI: 3.2
S. aureus ATCC6538P
  MIC: 25 µM (≈ 8.23 µg/mL)
P. aeruginosa ATCC9027
  MIC: > 100 µM
[7]
  CC50 at 48 h: 398 µM
[8]
  CC50 at 48 h: 132 µM

## CC(=O)Nc1ccc2c(c1)C(=O)/C(=C/c1ccccc1OC(C)C)O2 [Compound 18, (Z)-N-(2-(2-isopropoxybenzylidene)-3-oxo-2,3-dihydrobenzofuran-5-yl)acetamide]
E. coli ATCC8739
  MIC: > 100 µM
B. subtilis ATCC6633
  MIC: > 100 µM
C. albicans DSM10697
  MIC: > 100 µM
M. smegmatis ATCC700084
  MIC: > 100 µM
[9]
  activity against tested micro-organisms (in words): weak or no activity
S. aureus ATCC6538P
  MIC: > 100 µM
P. aeruginosa ATCC9027
  MIC: > 100 µM

## CC(=O)Nc1ccc2c(c1)C(=O)/C(=C/c1cccc(OC(C)C)c1)O2 [Compound 19, (Z)-N-(2-(3-isopropoxybenzylidene)-3-oxo-2,3-dihydrobenzofuran-5-yl)acetamide]
E. coli ATCC8739
  MIC: > 100 µM
B. subtilis ATCC6633
  MIC: > 100 µM
C. albicans DSM10697
  MIC: > 100 µM
M. smegmatis ATCC700084
  MIC: > 100 µM
[9]
  activity against tested micro-organisms (in words): weak or no activity
S. aureus ATCC6538P
  MIC: > 100 µM
P. aeruginosa ATCC9027
  MIC: 25 µM (≈ 8.43 µg/mL)

## CC(C)Oc1ccccc1/C=C1\Oc2ccc(N)cc2C1=O [Compound 21, (Z)-5-amino-2-(2-isopropoxybenzylidene)benzofuran-3(2H)-one]
E. coli ATCC8739
  MIC: > 100 µM
B. subtilis ATCC6633
  MIC: > 100 µM
C. albicans DSM10697
  MIC: > 100 µM
M. smegmatis ATCC700084
  MIC: > 100 µM
[9]
  activity against tested micro-organisms (in words): weak or no activity
S. aureus ATCC6538P
  MIC: > 100 µM
P. aeruginosa ATCC9027
  MIC: > 100 µM

## CC(C)Oc1cccc(/C=C2\Oc3ccc(N)cc3C2=O)c1 [Compound 22, (Z)-5-amino-2-(3-isopropoxybenzylidene)benzofuran-3(2H)-one]
E. coli ATCC8739
  MIC: > 100 µM
other
  melting point: 198.4 °C
B. subtilis ATCC6633
  MIC: > 100 µM
C. albicans DSM10697
  MIC: > 100 µM
M. smegmatis ATCC700084
  MIC: > 100 µM
[9]
  activity against tested micro-organisms (in words): weak or no activity
S. aureus ATCC6538P
  MIC: > 100 µM
P. aeruginosa ATCC9027
  MIC: > 100 µM
